# According to patent EP4806904A1, “POLYPEPTIDE AND USE THEREOF” (Sichuan Gooddoctor Panxi Pharmaceutical Co. Ltd, priority 2023, dated 2026):
# Where a SMILES comes first, the peptide text is derived from it. [ ]: non-standard residue; d: D form.
# Tests used:
# [1] = test system: neural stem cell line C17.2; test: Proliferation of neural stem cell line C17.2, BrdU, high-content imaging; format: cell-based; conditions: 100 µg/mL, 48 h; for Proliferation-promoting results: percentage of BrdU-positive cells, significance vs blank control group
# Method: • (1) C17.2 cells were seeded in 96-well plates at a concentration of 1500 cells/100 µL/well. After overnight culture for cell adherence, the cells were treated with drugs; • (2) Drug treatment was applied. The final concentration of the polypeptide of the invention was 100 µg/mL. Meanwhile, butylphthalide (NBP, 5 µM) was set as the positive control. The cells were cultured in the incubator for another 48 h; • (3) BrdU was added at 44 h of treatment to a final concentration of 10 µM. Immunofluorescence staining was performed 4 h later, and the percentage of BrdU-positive cells was statistically analyzed using a high-content cell imaging analysis system.
# [2] = test system: primary neural stem cells (NSCs); test: Differentiation of primary neural stem cells, βIII-tubulin fluorescence and Neurite Outgrowth Assay; format: cell-based, SD rats; conditions: 100 µg/mL; for mean fluorescence intensity of the neuronal marker protein βIII-tubulin: vs blank control group
# Method: This part of the experiment requires feeding male and female rats in advance, then extracting hippocampal neural stem cells from newborn SD rats within 24 h of birth, culturing them to P3 for identification, and then using them for experiments. • (1) Extraction and culture of primary neural stem cells (NSCs) • (2) NSCs that have been passaged to P3 and have good viability were seeded in differentiation medium (2% FBS+DMEM/F12 1:1 medium) in 48-well plates with a cell concentration of 5×10^4 cells/mL per well. After overnight culture for cell adherence, the cells were treated with drugs; • (3) Drug treatment was applied. The final concentration of the polypeptide of the invention was 100 µg/mL. Meanwhile, nerve growth factor (NGF, 50 ng/mL) was set as the positive control, and the cells were cultured in the incubator for another 4 days; • (4) Immunofluorescence staining (primary antibody βIII-tubulin) was performed after 4 days of treatment. The average fluorescence intensity of βIII-tubulin was analyzed and the Neurite Outgrowth Assay was performed using a high-content cell imaging analysis system.
# [3] = test system: Brain microvascular endothelial cells (BMECs) and brain microvascular smooth muscle cells (BMVSMCs); test: In vitro angiogenesis assay, BMEC/BMVSMC co-culture on matrigel; format: cell-based, mouse; conditions: 0.1 mg/L, 48 h; for Number of intersections / Cell count: significance vs blank control group
# Method: First, mouse brain microvascular pellets were obtained by differential centrifugation. Brain microvascular endothelial cells (BMECs) and brain microvascular smooth muscle cells (BMVSMCs) were isolated by digestion with collagenase II, respectively, and cultured in a cell incubator with 5% CO2 at 37°C . Cells at passages 3-6 in good growth condition and logarithmic growth phase were selected for the in vitro angiogenesis assay.
# One night before the experiment, the high-concentration matrigel was transferred from a -20°C or -80°C refrigerator to a 4°C refrigerator and allowed to thaw slowly overnight in the 4°C refrigerator. Pipette tips required for the formal experiment were sterilized in advance and pre-cooled in a 4°C refrigerator for subsequent use.
# On the day of the experiment, the matrigel was added to a 96-well plate 1 h in advance and placed in a 37°C cell incubator until it solidified. Subsequently, the cells were washed 2 times with 2 mL of PBS buffer, followed by digestion with 0.25% trypsin to obtain EC and VSMC pellets, respectively, and cell counting was performed. A uniform cell suspension containing 5×10^3 BMVSMCs and 1×10^3 BMECs per well was then seeded into the 96-well plate pre-coated with the matrigel, and cultured in a 37°C, 5% CO2 cell incubator for 3 days.
# During the culture period, tube formation was observed daily. The medium was changed on day 4, followed by treatment with the polypeptide of the invention at 0.1 mg/L or VEGFA at 10/15/20 ng/L for 48 h, respectively.
# On day 5, the cell nuclei and live cells were labeled with Hoechst 33342 and Calcein AM, respectively. High-content brightfield and fluorescence imaging were then performed using a high-content screening system. Finally, angiogenesis in each treatment group was analyzed using the Angiogenesis Analyzer plugin for ImageJ, and statistical analysis was carried out with GraphPad Prism 10.
# [4] = 4 days, significance vs blank control group
compound,measurement,setting,value
"H-LAPAPGTI-OH [Compound 20, H-Leu-Ala-Pro-Ala-Pro-Gly-Thr-Ile-OH]",Proliferation-promoting results,[1],* (*p < 0.05)
same,"neurite outgrowth (total neurite length, maximum neurite length, neurite terminals, neurite initiation points)","[2]; 4 days, Neurite Outgrowth Assay, in words",tendency to promote neurite outgrowth
same,Longest neurite length,[2]; [4],* (*p < 0.05)
same,Neurite initiation points (branches),[2]; [4],* (*p < 0.05)
same,mean fluorescence intensity of the neuronal marker protein βIII-tubulin,"[2]; 4 days, in words",tendency to enhance
same,Number of intersections,[3],* (*p < 0.05)
same,Branch length,"[3]; vs normal group, in words",no significant effects
same,number of junctions,"[3]; vs normal group, in words",promoting effects
"CC(C)C[C@H](NC(=O)[C@@H](NC(=O)CNC(=O)[C@@H]1CCCN1C(=O)[C@H](C)NC(=O)[C@@H]1CCCN1C(=O)[C@@H](CC(C)C)NC(=O)[C@H](C)N)[C@@H](C)O)C(=O)O [Compound 3, H-Ala-D-Leu-Pro-Ala-Pro-Gly-Thr-Leu-OH] (H-A[dL]PAPGTL-OH)",number of BrdU positive cells,"[1]; vs blank control group, in words",tendency to increase
same,Longest neurite length,[2]; [4],** (**p < 0.01)
same,Neurite initiation points (branches),[2]; [4],* (*p < 0.05)
same,Number of neurite terminals,[2]; [4],* (*p < 0.05)
same,Total neurite length,[2]; [4],** (**p < 0.01)
same,mean fluorescence intensity of the neuronal marker protein βIII-tubulin,"[2]; 4 days, in words",significant increase
same,differentiation of NSCs into neuronal cells,[2]; conclusion based on the results of the two analytical methods,promote the differentiation of NSCs into neuronal cells with stable effects
same,Average fluorescence intensity,"[2]; βIII-tubulin, 4 days, significance vs blank control group",* (*p < 0.05)
same,Cell count,[3],* (*p < 0.05)
same,cell proliferation,"[3]; vs normal group, in words",only promoted cell proliferation
"CC(C)C[C@H](NC(=O)[C@@H](NC(=O)CNC(=O)[C@@H]1CCCN1C(=O)[C@@H](C)NC(=O)[C@@H]1CCCN1C(=O)[C@H](CC(C)C)NC(=O)[C@H](C)N)[C@@H](C)O)C(=O)O [Compound 5, H-Ala-Leu-Pro-D-Ala-Pro-Gly-Thr-Leu-OH] (H-ALP[dA]PGTL-OH)",Proliferation-promoting results,[1],** (**p < 0.01)
same,Longest neurite length,[2]; [4],*** (***p < 0.001)
same,Neurite initiation points (branches),[2]; [4],*** (***p < 0.001)
same,Number of neurite terminals,[2]; [4],* (*p < 0.05)
same,Total neurite length,[2]; [4],** (**p < 0.01)
same,Cell count,[3],* (*p < 0.05)
same,Number of intersections,[3],* (*p < 0.05)
same,Branch length,"[3]; vs normal group, in words",no significant effects
same,number of junctions,"[3]; vs normal group, in words",promoting effects
